# According to ChEMBL document CHEMBL3885861, “Open TG-GATES”:
# Species on record: Rattus norvegicus
# Assay: Open TG-GATES - Regimen: Single
# Type: toxicity, organism-based, Sprague-Dawley
# Set-up: regimen Single, gender Male, age 6 weeks
# Conditions: in vivo, po, route gavage; for TP / gamma-GTP / ALP / ALT / AST / BUN / CRE / DBIL / GLC / K / LDH / Na / PL / RALB / TBIL / TC / TG: tissue Plasma; for APTT / Bas / Eos / Fbg / Hb / Ht / Lym / MCHC / MCV / Mono / PT / Plat / RBC / Ret / WBC: tissue Blood; for KIDNEY_L / KIDNEY_R / KIDNEY_TOTAL: tissue Kidney; for LIVER: tissue Liver
# [1] = 0 mg/kg, 24 h, dose level Control
# [2] = 600 mg/kg, 24 h, dose level Low
compound,measurement,setting,value
O=C1NC(=O)C(c2ccccc2)(c2ccccc2)N1 [PHENYTOIN],TP,[1],5.6 g/dL
same,gamma-GTP,[1],1 IU/L
same,TERMINAL_BW,"600 mg/kg, 3 h, dose level Low",210.6 g
same,APTT,"600 mg/kg, 3 h, dose level Low",16.8 s
same,Bas,"600 mg/kg, 3 h, dose level Low",0.2%
same,Eos,"600 mg/kg, 3 h, dose level Low",0.8%
same,Fbg,"600 mg/kg, 3 h, dose level Low",264.8 mg/dL
same,Hb,"600 mg/kg, 3 h, dose level Low",13.1 g/dL
same,Ht,"600 mg/kg, 3 h, dose level Low",39.2%
same,Lym,"600 mg/kg, 3 h, dose level Low",79%
same,MCHC,"600 mg/kg, 3 h, dose level Low",33.5%
same,MCV,"600 mg/kg, 3 h, dose level Low",62.3 fL
same,Mono,"600 mg/kg, 3 h, dose level Low",2.4%
same,PT,"600 mg/kg, 3 h, dose level Low",14 s
same,Plat,"600 mg/kg, 3 h, dose level Low",116 x10_4/uL
same,RBC,"600 mg/kg, 3 h, dose level Low",629.4 x10_4/ul
same,Ret,"600 mg/kg, 3 h, dose level Low",8%
same,KIDNEY_L,"600 mg/kg, 3 h, dose level Low",0.9 g
same,KIDNEY_R,"600 mg/kg, 3 h, dose level Low",1 g
same,KIDNEY_TOTAL,"600 mg/kg, 3 h, dose level Low",1.9 g
same,LIVER,"600 mg/kg, 3 h, dose level Low",8.8 g
same,ALP,"600 mg/kg, 3 h, dose level Low",1512 IU/L
same,ALT,"600 mg/kg, 3 h, dose level Low",36.4 IU/L
same,AST,"600 mg/kg, 3 h, dose level Low",78.6 IU/L
same,BUN,"600 mg/kg, 3 h, dose level Low",10 mg/dL
same,CRE,"600 mg/kg, 3 h, dose level Low",0.2 mg/dL
same,DBIL,"600 mg/kg, 3 h, dose level Low",0.012 mg/dL
same,GLC,"600 mg/kg, 3 h, dose level Low",186.6 mg/dL
same,K,"600 mg/kg, 3 h, dose level Low",3.9 meq/L
same,LDH,"600 mg/kg, 3 h, dose level Low",113.2 IU/L
same,Na,"600 mg/kg, 3 h, dose level Low",141.8 meq/L
same,PL,"600 mg/kg, 3 h, dose level Low",143.4 mg/dL
same,RALB,"600 mg/kg, 3 h, dose level Low",2.5 g/dL
same,TBIL,"600 mg/kg, 3 h, dose level Low",0.052 mg/dL
same,TC,"600 mg/kg, 3 h, dose level Low",82 mg/dL
same,TG,"600 mg/kg, 3 h, dose level Low",36.2 mg/dL
same,TP,"600 mg/kg, 3 h, dose level Low",5.4 g/dL
same,gamma-GTP,"600 mg/kg, 3 h, dose level Low",1.2 IU/L
same,TERMINAL_BW,"600 mg/kg, 6 h, dose level Low",208.2 g
same,APTT,"600 mg/kg, 6 h, dose level Low",18.6 s
same,Bas,"600 mg/kg, 6 h, dose level Low",0.4%
same,Eos,"600 mg/kg, 6 h, dose level Low",0.8%
same,Fbg,"600 mg/kg, 6 h, dose level Low",274.8 mg/dL
same,Hb,"600 mg/kg, 6 h, dose level Low",13 g/dL
same,Ht,"600 mg/kg, 6 h, dose level Low",38.2%
same,Lym,"600 mg/kg, 6 h, dose level Low",77.6%
same,MCHC,"600 mg/kg, 6 h, dose level Low",33.9%
same,MCV,"600 mg/kg, 6 h, dose level Low",61 fL
same,Mono,"600 mg/kg, 6 h, dose level Low",2.6%
same,PT,"600 mg/kg, 6 h, dose level Low",14.3 s
same,RBC,"600 mg/kg, 6 h, dose level Low",626.4 x10_4/ul
same,Ret,"600 mg/kg, 6 h, dose level Low",7.9%
same,WBC,"600 mg/kg, 6 h, dose level Low",89.4 x10_2/uL
same,KIDNEY_L,"600 mg/kg, 6 h, dose level Low",1 g
same,KIDNEY_R,"600 mg/kg, 6 h, dose level Low",0.9 g
same,KIDNEY_TOTAL,"600 mg/kg, 6 h, dose level Low",1.9 g
same,LIVER,"600 mg/kg, 6 h, dose level Low",8.7 g
same,ALP,"600 mg/kg, 6 h, dose level Low",1510.8 IU/L
same,ALT,"600 mg/kg, 6 h, dose level Low",30.8 IU/L
same,AST,"600 mg/kg, 6 h, dose level Low",71.8 IU/L
same,BUN,"600 mg/kg, 6 h, dose level Low",8.6 mg/dL
same,CRE,"600 mg/kg, 6 h, dose level Low",0.2 mg/dL
same,DBIL,"600 mg/kg, 6 h, dose level Low",0.01 mg/dL
same,GLC,"600 mg/kg, 6 h, dose level Low",181.8 mg/dL
same,K,"600 mg/kg, 6 h, dose level Low",4.2 meq/L
same,LDH,"600 mg/kg, 6 h, dose level Low",89 IU/L
same,Na,"600 mg/kg, 6 h, dose level Low",142.8 meq/L
same,PL,"600 mg/kg, 6 h, dose level Low",135.6 mg/dL
same,RALB,"600 mg/kg, 6 h, dose level Low",2.5 g/dL
same,TBIL,"600 mg/kg, 6 h, dose level Low",0.052 mg/dL
same,TC,"600 mg/kg, 6 h, dose level Low",74.8 mg/dL
same,TG,"600 mg/kg, 6 h, dose level Low",26 mg/dL
same,TP,"600 mg/kg, 6 h, dose level Low",5.3 g/dL
same,gamma-GTP,"600 mg/kg, 6 h, dose level Low",1.4 IU/L
same,TERMINAL_BW,"600 mg/kg, 9 h, dose level Low",206.7 g
same,APTT,"600 mg/kg, 9 h, dose level Low",16 s
same,Bas,"600 mg/kg, 9 h, dose level Low",0.2%
same,Eos,"600 mg/kg, 9 h, dose level Low",1%
same,Fbg,"600 mg/kg, 9 h, dose level Low",288.8 mg/dL
same,Hb,"600 mg/kg, 9 h, dose level Low",13.3 g/dL
same,Ht,"600 mg/kg, 9 h, dose level Low",39.5%
same,Lym,"600 mg/kg, 9 h, dose level Low",73.6%
same,MCHC,"600 mg/kg, 9 h, dose level Low",33.7%
same,MCV,"600 mg/kg, 9 h, dose level Low",60.6 fL
same,Mono,"600 mg/kg, 9 h, dose level Low",2.4%
same,PT,"600 mg/kg, 9 h, dose level Low",14.3 s
same,Plat,"600 mg/kg, 9 h, dose level Low",109.6 x10_4/uL
same,RBC,"600 mg/kg, 9 h, dose level Low",653.4 x10_4/ul
same,Ret,"600 mg/kg, 9 h, dose level Low",7.3%
same,WBC,"600 mg/kg, 9 h, dose level Low",74.9 x10_2/uL
same,KIDNEY_L,"600 mg/kg, 9 h, dose level Low",0.9 g
same,KIDNEY_R,"600 mg/kg, 9 h, dose level Low",0.9 g
same,KIDNEY_TOTAL,"600 mg/kg, 9 h, dose level Low",1.8 g
same,LIVER,"600 mg/kg, 9 h, dose level Low",7.7 g
same,ALP,"600 mg/kg, 9 h, dose level Low",1491.4 IU/L
same,ALT,"600 mg/kg, 9 h, dose level Low",29.6 IU/L
same,AST,"600 mg/kg, 9 h, dose level Low",72.4 IU/L
same,BUN,"600 mg/kg, 9 h, dose level Low",8.2 mg/dL
same,CRE,"600 mg/kg, 9 h, dose level Low",0.2 mg/dL
same,DBIL,"600 mg/kg, 9 h, dose level Low",0.016 mg/dL
same,GLC,"600 mg/kg, 9 h, dose level Low",186 mg/dL
same,K,"600 mg/kg, 9 h, dose level Low",4 meq/L
same,LDH,"600 mg/kg, 9 h, dose level Low",80.8 IU/L
same,Na,"600 mg/kg, 9 h, dose level Low",141.2 meq/L
same,PL,"600 mg/kg, 9 h, dose level Low",125.8 mg/dL
same,RALB,"600 mg/kg, 9 h, dose level Low",2.5 g/dL
same,TBIL,"600 mg/kg, 9 h, dose level Low",0.064 mg/dL
same,TC,"600 mg/kg, 9 h, dose level Low",69.6 mg/dL
same,TG,"600 mg/kg, 9 h, dose level Low",18 mg/dL
same,TP,"600 mg/kg, 9 h, dose level Low",5.4 g/dL
same,gamma-GTP,"600 mg/kg, 9 h, dose level Low",1 IU/L
same,TERMINAL_BW,[2],217.3 g
same,APTT,[2],16.9 s
same,Bas,[2],0.2%
same,Eos,[2],1.2%
same,Fbg,[2],286 mg/dL
same,Hb,[2],13.7 g/dL
same,Ht,[2],40.1%
same,Lym,[2],78.4%
same,MCHC,[2],34.2%
same,MCV,[2],62.9 fL
same,Mono,[2],2.4%
same,PT,[2],14.5 s
same,Plat,[2],120.7 x10_4/uL
same,RBC,[2],637.4 x10_4/ul
same,Ret,[2],7.3%
same,WBC,[2],101.8 x10_2/uL
same,KIDNEY_L,[2],1 g
same,KIDNEY_R,[2],1 g
same,KIDNEY_TOTAL,[2],1.9 g
same,LIVER,[2],9.7 g
same,ALP,[2],1621 IU/L
same,ALT,[2],34.6 IU/L
same,AST,[2],67.6 IU/L
same,BUN,[2],14 mg/dL
same,CRE,[2],0.2 mg/dL
same,DBIL,[2],0.022 mg/dL
same,GLC,[2],177.6 mg/dL
same,K,[2],4.4 meq/L
same,LDH,[2],123.6 IU/L
same,Na,[2],141.6 meq/L
same,PL,[2],143 mg/dL
same,RALB,[2],2.6 g/dL
same,TBIL,[2],0.04 mg/dL
same,TC,[2],75.4 mg/dL
same,TG,[2],95.8 mg/dL
same,TP,[2],5.6 g/dL
